Activity calls are given as the source filed them. No cut-off for these calls is given here.
Tests used:
[1] = target: Prostaglandin G/H synthase 1 (Bos taurus) (UniProt O62698); assay: Inhibition of COX1-catalyzed prostaglandin biosynthesis 10 mins of preincubation
[2] = Ratio of IC50 for COX2 to IC50 for COX1
[3] = target: Prostaglandin G/H synthase 1 (Bos taurus) (UniProt O62698); assay: Inhibition of COX1-catalyzed prostaglandin biosynthesis at 200 ug/ml without preincubation; conditions: TDE = time-dependent effect
[4] = target: Prostaglandin G/H synthase 1 (Bos taurus) (UniProt O62698); assay: Inhibition of COX1-catalyzed prostaglandin biosynthesis at 100 ug/ml without preincubation

Sequence of Prostaglandin G/H synthase 1 (Bos taurus) (O62698 whole entry, looked up): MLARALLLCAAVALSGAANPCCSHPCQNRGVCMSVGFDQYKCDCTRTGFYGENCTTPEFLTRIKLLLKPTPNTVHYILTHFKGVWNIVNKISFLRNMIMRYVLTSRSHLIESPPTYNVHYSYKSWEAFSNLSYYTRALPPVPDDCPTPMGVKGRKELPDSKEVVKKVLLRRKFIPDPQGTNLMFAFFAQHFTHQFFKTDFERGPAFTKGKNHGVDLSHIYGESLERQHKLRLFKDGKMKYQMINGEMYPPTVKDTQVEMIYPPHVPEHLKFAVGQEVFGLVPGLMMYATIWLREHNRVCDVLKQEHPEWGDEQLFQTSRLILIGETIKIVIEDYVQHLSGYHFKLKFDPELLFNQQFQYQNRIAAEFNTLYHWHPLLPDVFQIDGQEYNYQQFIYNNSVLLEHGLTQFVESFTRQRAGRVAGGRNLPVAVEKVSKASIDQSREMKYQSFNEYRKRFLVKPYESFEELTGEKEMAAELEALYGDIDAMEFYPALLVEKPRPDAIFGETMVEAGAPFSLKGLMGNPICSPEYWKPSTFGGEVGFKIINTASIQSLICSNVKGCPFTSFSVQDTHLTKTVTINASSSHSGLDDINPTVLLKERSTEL

With C[C@H]1[C@H](C)CC[C@]2(C(=O)O)CC[C@]3(C)C(=CC[C@@H]4[C@@]5(C)CC[C@H](O)C(C)(C)[C@@H]5CC[C@]43C)[C@H]12 [URSOLIC ACID] the IC50 [1] was 210 µM, the Ratio IC50 [2] was 0.6 and the Activity [3] was “tde”. For the same molecule, the Activity [4] was “Active”.
